Legend:
STAT3 = STAT3 (Homo sapiens, UniProt P40763); test: STAT3/pY-peptide binding surface plasmon resonance (SPR) assay; details: for IC50: STAT3 200 nM, EGFR pY1068 dodecapeptide, mean, n ≥ 2, read-out: pY-Peptide Binding (SPR) IC50; for Inhibition of STAT3 binding to pY-peptide compared with C188: SPR
Method: The equilibrium binding levels obtained ± compound were normalized (resonance obtained in the presence of compound ÷ the resonance obtained in the absence of compound × 100) and plotted against Log [nM] […] B. Inhibition of ligand-stimulated STAT phosphorylation, measured by phosphoflow. Serum-starved (1 hour) Kasumi-1 cells, pre-incubated with compound/DMSO (1 hour), were treated with G-CSF (10 ng/ml, 15 min, left two panels) or IFN-γ (10ng/ml, 15 min, right panel). Cells were permeabilized and stained with Alexa647-pSTAT3, and PE-pSTAT1 antibodies and analyzed on BD LSR2. FCS files were uploaded to Cytobank for pSTAT3 and pSTAT1 quantitation. Histograms depicting pSTAT3 and pSTAT1 levels are shown. C. Mean fluorescence (pSTAT3/1) levels were plotted as function the Log [M] compound, and IC50 calculated using GraphPad. […] D. Inhibition of ligand-stimulated STAT phosphorylation, measured by Luminex. Serum-starved (1 hour) Kasumi-1 cells, pre-incubated with compound/DMSO (0/0.1/0.3/1/3/10/100 μM, 1 hour), were treated with G-CSF (10 ng/ml, 15′). Total protein extracts of cells were assayed for pSTAT3, pSTAT1, and GAPDH levels by Luminex. GAPDH-normalized pSTAT3 or pSTAT1 values were divided by this ratio for untreated cells and expressed in percentage. These values were plotted as a function of Log [M] compound, and IC50 values calculated using GraphPad. […]
3-D pharmacophore sorting used to evaluate the effect of each compound on STAT3 binding. Responses were normalized by dividing the […]
fingerprint screening were converted into 3-D structures compounds at 2 min and multiplying by 100. IC values […]
for analysis as described below. were determined by plotting % maximum response as a 3-D pharmacophore generation function of log concentration of compound and fitting the Each molecular chemical feature, including experimental points to a competitive binding model using hydrogen bond donor, hydrogen bond acceptor, positive a four parameter logistic equation: R = Rhigh − (Rhigh − R low)/ (1 + conc/A1)^A2, where R = percent response at and negative ionizable group, and hydrophobic region, inhibitor concentration, R = percent response with no was generated using the LigandScout application compound, R= percent response at highest compound high framework and projected into 3-D space. concentration, A2 = fitting parameter (slope) and A1 = low Feature-pairing IC50 (BIAevaluation Software version 4.1). The inhibition Each chemical feature was converted into distance constant (Ki) was derived from the Cheng-Prusoff bin and the complete set of distance bins used to construct equation Ki=IC50/(1+[C]/Kd) as used by Halling et al a cost matrix. The most favorable pairing based on cost where C stands for STAT3 concentration used in the SPR matrix was identified. assay and Kd denotes the dissociation constant for STAT3 3-D pharmacophore transformation binding to its phosphorylated EGFR ligand in the SPR […]
STAT3/pY-peptide binding assay and total protein extracted from cell pellets. […]
STAT3 binding assays were performed at 25 °C (Millipore, Danvers, MA) coupled to antibody against

pSTAT5 = test: Phosphoflow, G-CSF-induced pSTAT5 in Kasumi-1 cells; type: cell-based; details: mean, n ≥ 2, read-out: Ligand Induced Phosphorylation (Phosphoflow) pSTAT5 (G-CSF) IC50
Method: (§1) Phosphoflow analysis was done as described in Xu et al. Briefly, Kasumi-1 cells, were serum-starved, pre-treated with compound or DMSO (1 hour, RT) and then stimulated with 20 μl of GCSF (10 ng/ml) for 15 minutes at 37°C. The cells were then permeabilized and stained with Alexa647-pSTAT3, Alexa488-pSTAT5 and PE-pSTAT1 antibodies and analyzed using the BD LSR2. FCS files were exported and uploaded to Cytobank for determination of phosphoproteins as earlier. Gating was done on live, single cells and then gates selected for positive ligand-activated pSTAT3 and pSTAT1. IC50 values were calculated using the GraphPad Prism.

pSTAT3 (Tyr-705) = target: T1, pSTAT3 (Tyr-705) (Homo sapiens, UniProt P40763); test: Phosphoflow, G-CSF-induced STAT3 phosphorylation in Kasumi-1 cells; type: cell-based; details: Kasumi-1, G-CSF 10 ng/ml 15 min; mean, n ≥ 2; read-out: Ligand Induced Phosphorylation (Phosphoflow) pSTAT3 (GCSF) IC50
T1 construct: endogenous in cells; host or cells: Kasumi-1
Method: (§2) The equilibrium binding levels obtained ± compound were normalized (resonance obtained in the presence of compound ÷ the resonance obtained in the absence of compound × 100) and plotted against Log [nM] […] B. Inhibition of ligand-stimulated STAT phosphorylation, measured by phosphoflow. Serum-starved (1 hour) Kasumi-1 cells, pre-incubated with compound/DMSO (1 hour), were treated with G-CSF (10 ng/ml, 15 min, left two panels) or IFN-γ (10ng/ml, 15 min, right panel). Cells were permeabilized and stained with Alexa647-pSTAT3, and PE-pSTAT1 antibodies and analyzed on BD LSR2. FCS files were uploaded to Cytobank for pSTAT3 and pSTAT1 quantitation. Histograms depicting pSTAT3 and pSTAT1 levels are shown. C. Mean fluorescence (pSTAT3/1) levels were plotted as function the Log [M] compound, and IC50 calculated using GraphPad. […] D. Inhibition of ligand-stimulated STAT phosphorylation, measured by Luminex. Serum-starved (1 hour) Kasumi-1 cells, pre-incubated with compound/DMSO (0/0.1/0.3/1/3/10/100 μM, 1 hour), were treated with G-CSF (10 ng/ml, 15′). Total protein extracts of cells were assayed for pSTAT3, pSTAT1, and GAPDH levels by Luminex. GAPDH-normalized pSTAT3 or pSTAT1 values were divided by this ratio for untreated cells and expressed in percentage. These values were plotted as a function of Log [M] compound, and IC50 values calculated using GraphPad.
as §1

pSTAT1 (Tyr-701) = target: T2, pSTAT1 (Tyr-701) (Homo sapiens, UniProt P42224); test: Phosphoflow, IFN-γ-induced pSTAT1 in Kasumi-1 cells; type: cell-based; details: Kasumi-1, IFN-γ 10 ng/ml 15 min; mean, n ≥ 2; read-out: Ligand Induced Phosphorylation (Phosphoflow) pSTAT1 (IFN-γ) IC50
T2 construct: endogenous in cells; host or cells: Kasumi-1
T2 sequence (P42224 1-750): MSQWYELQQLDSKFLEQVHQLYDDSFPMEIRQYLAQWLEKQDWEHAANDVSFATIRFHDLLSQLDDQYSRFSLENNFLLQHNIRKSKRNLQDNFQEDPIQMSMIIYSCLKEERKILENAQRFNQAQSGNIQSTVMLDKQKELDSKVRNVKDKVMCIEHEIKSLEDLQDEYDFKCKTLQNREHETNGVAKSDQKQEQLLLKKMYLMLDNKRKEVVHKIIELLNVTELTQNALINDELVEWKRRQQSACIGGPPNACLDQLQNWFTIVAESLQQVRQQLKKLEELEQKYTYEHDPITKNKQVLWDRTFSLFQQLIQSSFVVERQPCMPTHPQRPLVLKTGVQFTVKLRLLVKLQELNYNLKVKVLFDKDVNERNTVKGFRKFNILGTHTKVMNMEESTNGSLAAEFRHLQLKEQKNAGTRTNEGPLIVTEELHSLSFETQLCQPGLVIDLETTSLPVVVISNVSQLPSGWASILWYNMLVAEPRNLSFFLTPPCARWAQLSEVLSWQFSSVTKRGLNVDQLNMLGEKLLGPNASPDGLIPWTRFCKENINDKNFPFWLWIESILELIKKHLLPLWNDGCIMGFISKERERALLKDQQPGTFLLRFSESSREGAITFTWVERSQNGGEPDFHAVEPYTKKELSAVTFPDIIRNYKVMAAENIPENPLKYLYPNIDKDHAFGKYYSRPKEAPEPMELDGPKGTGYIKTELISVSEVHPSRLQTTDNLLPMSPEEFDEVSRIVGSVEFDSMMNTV
Method: as §2, §1

Sequence of STAT3 (P40763 whole entry, species assumed): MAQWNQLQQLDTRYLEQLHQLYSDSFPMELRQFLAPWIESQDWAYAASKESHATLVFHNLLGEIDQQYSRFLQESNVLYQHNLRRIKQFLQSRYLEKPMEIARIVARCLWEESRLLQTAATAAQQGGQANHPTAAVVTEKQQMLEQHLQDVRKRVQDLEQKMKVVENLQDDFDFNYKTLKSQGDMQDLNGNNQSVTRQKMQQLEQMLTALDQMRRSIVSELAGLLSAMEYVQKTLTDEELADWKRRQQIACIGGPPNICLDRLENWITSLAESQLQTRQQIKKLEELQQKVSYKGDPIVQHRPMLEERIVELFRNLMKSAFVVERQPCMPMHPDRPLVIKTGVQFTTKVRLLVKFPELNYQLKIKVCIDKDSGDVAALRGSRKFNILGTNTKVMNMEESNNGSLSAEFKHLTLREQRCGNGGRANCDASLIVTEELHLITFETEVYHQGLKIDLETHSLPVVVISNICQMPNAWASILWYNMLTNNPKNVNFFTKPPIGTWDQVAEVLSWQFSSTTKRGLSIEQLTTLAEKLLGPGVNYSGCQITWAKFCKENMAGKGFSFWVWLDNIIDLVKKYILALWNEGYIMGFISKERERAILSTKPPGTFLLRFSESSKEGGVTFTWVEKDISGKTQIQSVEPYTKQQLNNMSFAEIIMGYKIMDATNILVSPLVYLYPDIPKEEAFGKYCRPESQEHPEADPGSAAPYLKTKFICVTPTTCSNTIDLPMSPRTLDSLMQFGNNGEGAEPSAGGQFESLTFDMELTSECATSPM
T1 sequence (P40763 whole entry): as the sequence (P40763 whole entry, species assumed) above

Row | SMILES | IC50 (STAT3) | IC50 (pSTAT5) | IC50 (pSTAT3 (Tyr-705)) | IC50 (pSTAT1 (Tyr-701)) | Inhibition of STAT3 binding to pY-peptide compared with C188 (STAT3)
1 | Cc1cc(C)c(S(=O)(=O)Nc2cc(C(C(=O)OC(C)C)C(=O)C(F)(F)F)c(O)c3ccccc23)cc1C (centres unmarked) [Compound C188-31] | 42 ± 7.1 µM | > 300 µM | 13 µM | 47 µM | –
2 | Cc1ccc(S(=O)(=O)Nc2cc3sc(=O)oc3c3ccccc23)c(C)c1 [Compound C188-32] | 48 ± 19.8 µM | > 300 µM | 7.5 ± 3.6 µM | 3 µM | –
3 | Cc1ccc(S(=O)(=O)Nc2cc(Sc3nc4ccccc4s3)c(O)c3ccccc23)c(C)c1 [Compound C188-2] | 20 ± 9.9 µM | 35 ± 29.7 µM | 29.8 ± 25.9 µM | 51 µM | –
4 | COc1ccc(S(=O)(=O)Nc2cc(Sc3cccc4cccnc34)c(O)c3ccccc23)cc1 [Compound C188-38] | 18.5 ± 9.2 µM | – | – | > 300 µM | –
5 | Cc1cc(C)c(S(=O)(=O)Nc2cc(C(C(=O)OC(C)C)C(=O)C(F)(F)F)c(O)c3ccccc23)c(C)c1 (centres unmarked) [Compound C188-3] | 17.3 ± 8.5 µM | 21 µM | 21.6 ± 11.1 µM | 34.5 ± 10.6 µM | –
6 | Cc1cc(C)c(C)c(S(=O)(=O)Nc2cc(SCC(=O)O)c(O)c3ccccc23)c1C [Compound C188-14] | 8.7 ± 9.1 µM | 10 µM | 40.3 ± 50.8 µM | 57 µM | activity similar to C188
7 | COCc1oc2c(cc(NS(=O)(=O)c3ccc(F)cc3)c3ccccc32)c1C(=O)OC [Compound C188-29] | 27.5 ± 10.6 µM | > 300 µM | – | > 300 µM | –
8 | Cc1cc(C)c(S(=O)(=O)Nc2cc(Sc3nc[nH]n3)c(O)c3ccccc23)cc1C [Compound C188-18] | 3.5 ± 0.7 µM | > 300 µM | > 300 µM | > 300 µM | improved inhibition
9 | CC(C)c1ccc(S(=O)(=O)Nc2cc3c4c(oc3c3ccccc23)CCCC4)cc1 [Compound C188-37] | 24.5 ± 6.4 µM | > 300 µM | > 300 µM | > 300 µM | –
10 | CC(=O)Nc1c([N+](=O)[O-])cc(N(C(C)=O)S(=O)(=O)c2ccccc2)c2ccccc12 [Compound C188-13] | 280 ± 41 µM | > 300 µM | – | > 300 µM | –
11 | CC(C)OC(=O)C(C(=O)C(F)(F)F)c1cc(NS(=O)(=O)c2ccccc2)c2ccccc2c1O (centres unmarked) [Compound C188-6] | 16 ± 15.6 µM | – | 23.5 ± 6.4 µM | – | –
12 | CC(C)OC(=O)C(C(=O)C(F)(F)F)c1cc(NS(=O)(=O)c2ccc(Cl)cc2)c2ccccc2c1O (centres unmarked) [Compound C188-5] | 11.5 ± 7.8 µM | > 300 µM | 27 ± 1.4 µM | – | –
13 | CC(C)OC(=O)C(C(=O)C(F)(F)F)c1cc(NS(=O)(=O)c2ccc(Br)cc2)c2ccccc2c1O (centres unmarked) [Compound C188-4] | 21.5 ± 21.9 µM | – | 11 ± 1.4 µM | 29 µM | –
14 | O=S(=O)(Nc1cc(Sc2nc[nH]n2)c(O)c2ccccc12)c1ccc(F)cc1 [Compound C188-17] | 3.5 ± 2.1 µM | – | > 300 µM | > 300 µM | improved inhibition
15 | O=S(=O)(Nc1cc(Sc2ccccc2)c(O)c2ccccc12)c1ccc(F)cc1 [Compound C188-16] | 4 µM | > 300 µM | – | > 300 µM | improved inhibition
16 | O=S(=O)(Nc1ccc(O)c2ccccc12)c1ccccc1 [Compound C188-21] | > 300 µM | – | 15 ± 17 µM | > 300 µM | –
17 | CCOC(=O)c1c(C)oc2c1cc(NS(=O)(=O)c1ccc(C(C)(C)C)cc1)c1ccccc12 [Compound C188-35] | 25.5 ± 6.4 µM | > 300 µM | – | > 300 µM | –
18 | Cc1ccc(S(=O)(=O)Nc2cc3c4c(oc3c3ccccc23)CCC(C(C)(C)C)C4)c(C)c1 (centres unmarked) [Compound C188-26] | 89 ± 2.8 µM | > 300 µM | – | – | –
19 | O=S(=O)(Nc1ccc(O)c2ccccc12)c1ccc(F)cc1 [Compound C188-27] | > 300 µM | > 300 µM | – | > 300 µM | –
20 | CC(=O)Oc1c(Br)cc(N(C(C)=O)S(=O)(=O)c2ccc(C)cc2)c2ccccc12 [Compound C188-28] | 71 ± 33.9 µM | > 300 µM | – | 10 µM | –
